In patent publication US6242199A, “Assays for growth hormone secretagogue receptors” (Merck & Co., Inc., priority 1998, dated 2001):
pIC50: −log10 of the molar value. Where two headings read alike, the source gives them in different places. Where no end group is shown, it is not given here.

Key:
[1] = target: T1, growth hormone secretagogue receptor (GHSR), porcine anterior pituitary membranes (Sus scrofa, UniProt Q95254); test: [35S]-Compound A radioreceptor binding, porcine anterior pituitary membranes; settings: for affinity relative to that of Compound A: % of affinity of Compound A; for nature of competition with [35S]-Compound A (in words): double reciprocal plot of saturation isotherm, FIG. 25
T1 construct: Frozen anterior pituitary glands from male swine (50-80 Kg); from tissue; host or cells: anterior pituitary glands of male swine (50-80 kg), crude membranes
T1 sequence (Q95254 whole entry): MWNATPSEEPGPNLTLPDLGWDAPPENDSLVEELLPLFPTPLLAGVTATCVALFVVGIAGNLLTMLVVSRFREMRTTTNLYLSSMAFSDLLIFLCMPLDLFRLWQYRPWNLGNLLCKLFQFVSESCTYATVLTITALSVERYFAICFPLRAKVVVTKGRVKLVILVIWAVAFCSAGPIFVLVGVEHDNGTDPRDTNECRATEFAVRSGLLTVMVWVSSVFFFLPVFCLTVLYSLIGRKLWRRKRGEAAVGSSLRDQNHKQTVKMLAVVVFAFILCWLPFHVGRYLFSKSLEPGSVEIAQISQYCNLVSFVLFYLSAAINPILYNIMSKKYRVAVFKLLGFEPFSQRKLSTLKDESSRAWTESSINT
Protocol: Frozen anterior pituitary glands from male swine (50-80 Kg) or from the Wistar male rats (150-200 g) were homogenized in a tissue homogenizer in ice-cold buffer (50 mM Tris-HCl buffer, pH 7.4, 5 mM MgCl2, 2.5 mM EDTA, 0.1% bovine serum albumin and 30 μg/ml bacitracin). The homogenates were centrifuged for 5 min at 1,400×g and the resulting supernatants were then centrifuged at 34,000×g for 20 min. The pellets were resuspended in same buffer to a 1,500 μg protein/ml and stored at -80° C. Protein was determined by a Bio-Rad method (Bio-Rad Laboratories, Richmond, Calif.).
Aliquots were incubated at 20° C. for 60 min and bound radioligand was separated from free by filtration through GF/C filters pretreated with 0.5% of polyethylenimine in a Brandel cell harvester. […] Assays were carried out in triplicate and experiments repeated at least three times.

[2] = target: growth hormone secretagogue receptor (GHSR) of swine, native receptor of the anterior pituitary (swine) (UniProt Q95254); test: competition with [35S]-Compound A on porcine anterior pituitary membranes, filtration

| Molecule | competition with [35S]-Compound A at 1 μM (in words) [1] | further results |
| --- | --- | --- |
| met-enkephalin | did not compete |  |
| CC(C)C[C@H]1C(=O)N2CCC[C@H]2[C@]2(O)O[C@](NC(=O)[C@@H]3C=C4c5cccc6[nH]c(Br)c(c56)C[C@H]4N(C)C3)(C(C)C)C(=O)N12 [bromocriptine] | did not compete |  |
| gonadotropin releasing hormone | did not compete |  |
| GHRH: hypothalamic hormone, growth hormone releasing factor | did not compete |  |
| Clc1cccc(Cl)c1N=C1NCCN1 [clonidine] | did not compete |  |
| CC(C)NCC(O)c1ccc(O)c(O)c1 (stereo not drawn) [isoproterenol] | did not compete |  |
| galanin | did not compete |  |
| GHRP-6 (peptide) |  | affinity as percent of that of Compound A [2]: 3.8% |
| COc1ccc(OC)c(C(O)C(C)N)c1 (stereo not drawn) [methoxamine] | did not compete |  |
| CC(C)(N)CC(=O)N[C@@H]1CCc2ccccc2N(Cc2ccc(-c3ccccc3-c3nn[nH]n3)cc2)C1=O [Compound B] |  | affinity relative to that of Compound A [1]: 0.4%; nature of competition with [35S]-Compound A (in words) [1]: competitor of [^35 S]-Compound A binding |
| Nc1nc2c(ncn2[C@@H]2O[C@H](COP(=O)(O)OP(=O)(O)OP(O)(O)=S)[C@@H](O)[C@H]2O)c(=O)[nH]1 [GTP-γ-S] |  | pIC50 [1]: 7.52 |
| COc1cccc(OC)c1OCCNCC1CSc2ccccc2O1 (stereo not drawn) [benoxathian] | did not compete |  |
| CC(COc1ccccc1)N(CCCl)Cc1ccccc1 (stereo not drawn) [phenoxybenzamine] | did not compete |  |
| NC(=O)[C@@H]1CCCN1C(=O)[C@H](Cc1cnc[nH]1)NC(=O)[C@@H]1CCC(=O)N1 [thyrotropin releasing hormone] | did not compete |  |
| Nc1nc2c(ncn2[C@@H]2O[C@H](COP(=O)(O)OP(=O)(O)NP(=O)(O)O)[C@@H](O)[C@H]2O)c(=O)[nH]1 [GMP-PNP] |  | pIC50 ([1]; GTP analogs / nucleotides, FIG. 26, read-out: inhibition of [35S]-Compound A binding, IC50): 6.96 |
| melanocyte stimulating hormone | did not compete |  |
| pituitary adenylate cyclase activating polypeptide-38 | did not compete |  |
| Nc1ncnc2c1ncn2[C@@H]1O[C@H](COP(=O)(O)OP(=O)(O)OP(O)(O)=S)[C@@H](O)[C@H]1O [ATP-γ-S] |  | effect on [35S]-Compound A binding (in words) ([1]; nucleotides, FIG. 26): ineffective |
| GHRP-6 |  | affinity relative to that of Compound A [1]: 3.8%; nature of competition with [35S]-Compound A (in words) [1]: interacts competitively with Compound A in the same binding site |
| gastrin releasing peptide (VPLPAGGGTVLTKMYPRGNHWAVGHLM; ends and bridges not checked; UniProt P07492 24-50, looked up) | did not compete |  |
| somatostatin: hypothalamic hormone | did not compete |  |
| PHM-27 (HADGVFTSDFSKLLGQLSAKKYLESLM; ends and bridges not checked; UniProt P01282 81-107, looked up) | did not compete |  |
| substance P | did not compete |  |
| CC(C)NC[C@H](O)COc1cccc2ccccc12 (racemic) [propanolol] | did not compete |  |
| CC(C)(N)CC(=O)N[C@H]1CCc2ccccc2N(Cc2ccc(-c3ccccc3-c3nn[nH]n3)cc2)C1=O [Compound C] |  | displacement of / competition with [35S]-Compound A binding (in words) ([1]; unlabeled competitor, FIG. 24): competed poorly |
